Patent EP0533849B1 (ROUSSEL UCLAF, priority 1991, dated 1992)

Molecular target: Sucrose Phosphate Synthase (Zea mays, UniProt P31927)
Conditions: phosphate gradient of the HAC (hydroxyapatite) stage
Procedure: During purification SPS activity is followed in 2 ways : • a) either by means of a colorimetric test (P.S. Kerr et al., Planta., 1987, 170 : 515-519) called resorcinol test described below. […] In practice, to 45 µl (microliter) of enzymatic preparation 25 µl of a buffered solution containing the two substrates is added (UDPG 70 mM, F6P 28 mM, MgCl2 15 mM, HEPES 25 mM pH 7,5). After incubation at 37°C, reaction is stopped by adding 70 µl of NaOH in solution and heating at 95°C during 10 mn. After cooling, 0,25 ml of a solution 0,1 % resorcinol in ethanol 95 % is added, then 0,75 ml of HCl 30 % is added. The OD 520 mM is read after incubation 8 mn at 80 mn, and cooling. • b) or by means of a coupled enzymatic system (S. Harbron et al., Anal. Biochem. 1980, 107 : 56-59) being composed in the following way : [drawing 3]
The disappearance of the NADH absorption at 340 nm is monitored 1 mole of NAD formed or 1 mole of NADH consumed corresponds to 1 mole of sucrose 6 P formed.
In pratice, in a quartz spectrophotometric tun thermostated at 37°C, the following solution are added. • 540 µl of HEPES buffered 50 mM, MgCl2 10 mM KCl 20 mM pH=7.5, • 250 µl of a mixture of substrates PEP (1,6 mM NaDH 0,6 mM, ATP 4 mM UDPG 112 mM), • 60 µl of an enzyme mixture (LDH 166,7 U/ml PK 333,3 U/ml, NPzK 66,7 U/ml), • 100 µl of F6P 112 mM. […]

Chain of Sucrose Phosphate Synthase (P31927 whole entry): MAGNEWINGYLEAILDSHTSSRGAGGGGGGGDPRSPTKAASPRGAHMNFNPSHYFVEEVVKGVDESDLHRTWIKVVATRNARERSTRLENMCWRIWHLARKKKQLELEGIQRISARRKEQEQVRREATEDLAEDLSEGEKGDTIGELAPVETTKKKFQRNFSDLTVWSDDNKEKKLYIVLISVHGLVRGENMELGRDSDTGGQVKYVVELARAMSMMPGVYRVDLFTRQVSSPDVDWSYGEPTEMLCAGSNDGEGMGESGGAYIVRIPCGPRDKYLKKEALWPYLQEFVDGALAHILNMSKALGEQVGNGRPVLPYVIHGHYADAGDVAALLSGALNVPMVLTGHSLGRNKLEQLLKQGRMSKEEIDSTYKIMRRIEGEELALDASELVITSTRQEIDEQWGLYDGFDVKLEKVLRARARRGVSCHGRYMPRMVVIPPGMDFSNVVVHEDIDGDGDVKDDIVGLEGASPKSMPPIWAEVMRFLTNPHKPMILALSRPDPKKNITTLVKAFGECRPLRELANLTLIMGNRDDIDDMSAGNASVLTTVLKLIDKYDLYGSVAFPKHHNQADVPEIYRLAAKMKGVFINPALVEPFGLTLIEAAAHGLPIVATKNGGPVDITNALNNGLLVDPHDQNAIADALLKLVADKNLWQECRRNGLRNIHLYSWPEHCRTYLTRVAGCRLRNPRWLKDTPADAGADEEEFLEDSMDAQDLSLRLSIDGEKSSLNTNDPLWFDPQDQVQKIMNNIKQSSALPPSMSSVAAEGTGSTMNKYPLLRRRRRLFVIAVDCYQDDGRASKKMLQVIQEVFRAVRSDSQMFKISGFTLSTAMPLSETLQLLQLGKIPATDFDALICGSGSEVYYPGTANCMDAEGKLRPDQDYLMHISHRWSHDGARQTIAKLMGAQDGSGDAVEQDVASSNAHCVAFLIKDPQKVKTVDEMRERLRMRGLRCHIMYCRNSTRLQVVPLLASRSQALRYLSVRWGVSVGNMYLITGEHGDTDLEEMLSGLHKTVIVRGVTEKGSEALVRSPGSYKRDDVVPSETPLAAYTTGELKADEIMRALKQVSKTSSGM

inhibition of SPS activity: partially inhibit SPS activity
Substance: phosphate
